B1: uncoupling protein 2 (UCP2), recombinant His6-tagged (natural protein, human, UniProt P55851 1-309, looked up)
chain: MVGFKATDVPPTATVKFLGAGTAACIADLITFPLDTAKVRLQIQGESQGPVRATASAQYRGVMGTILTMVRTEGPRSLYNGLVAGLQRQMSFASVRIGLYDSVKQFYTKGSEHASIGSRLLAGSTTGALAVAVAQPTDVVKVRFQAQARAGGGRRYQSTVNAYKTIAREEGFRGLWKGTSPNVARNAIVNCAELVTYDLIKDALLKANLMTDDLPCHFTSAFGAGFCTTVIASPVDVVKTRYMNSALGQYSSAGHCALTMLQKEGPRAFYKGFMPSFLRLGSWNVVMFVTYEQLKRALMAACTSREAPF
notes: human UCP2, UniProt P55851; Cloned in pET26b(+); purified as a monomer in OG, tetramer after reconstitution in liposomes; source: E. coli BL21 (DE3) or BL21 CodonPlus (DE3)-RIPL, extracted from bacterial membranes, purified (Ni-NTA IMAC, 1% OG); not shown: pelB leader, N-terminal, cleaved; His6, N-terminal, kept
B3: uncoupling protein 4 (UCP4), recombinant His6-tagged (natural protein, human, UniProt O95847 1-323, looked up)
chain: MSVPEEEERLLPLTQRWPRASKFLLSGCAATVAELATFPLDLTKTRLQMQGEAALARLGDGARESAPYRGMVRTALGIIEEEGFLKLWQGVTPAIYRHVVYSGGRMVTYEHLREVVFGKSEDEHYPLWKSVIGGMMAGVIGQFLANPTDLVKVQMQMEGKRKLEGKPLRFRGVHHAFAKILAEGGIRGLWAGWVPNIQRAALVNMGDLTTYDTVKHYLVLNTPLEDNIMTHGLSSLCSGLVASILGTPADVIKSRIMNQPRDKQGRGLLYKSSTDCLIQAVQGEGFMSLYKGFLPSWLRMTPWSMVFWLTYEKIREMSGVSPF
notes: human UCP4, UniProt O95847; Cloned in pET26b(+); purified as a monomer in OG, tetramer after reconstitution in liposomes; source: E. coli BL21 (DE3) or BL21 CodonPlus (DE3)-RIPL, extracted from bacterial membranes, purified (Ni-NTA IMAC, 1% OG); not shown: pelB leader, N-terminal, cleaved; His6, N-terminal, kept

Legend:
[1] = target: T1, ANT1 (Bos taurus, UniProt P02722); design: gene SLC25A4; details: 500 uM ATP; EYPC without added cardiolipin, 100 uM palmitic acid, valinomycin, pH 7.2, 25 C
T1 sequence (P02722 2-298): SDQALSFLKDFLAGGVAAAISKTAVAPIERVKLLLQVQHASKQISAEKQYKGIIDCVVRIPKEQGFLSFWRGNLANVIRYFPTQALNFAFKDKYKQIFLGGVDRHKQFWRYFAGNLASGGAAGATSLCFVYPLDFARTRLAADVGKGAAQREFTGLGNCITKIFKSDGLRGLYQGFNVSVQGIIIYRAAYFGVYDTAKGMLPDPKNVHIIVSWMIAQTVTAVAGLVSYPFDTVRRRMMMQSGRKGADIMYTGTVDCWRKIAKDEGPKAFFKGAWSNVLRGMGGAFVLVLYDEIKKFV

[2] = target: T2, UCP4:ANT1 heterotetramer (1:1) (Homo sapiens; Bos taurus, UniProt O95847+P02722); assay type: biochemical; details: 500 uM ATP; EYPC without added cardiolipin, 100 uM palmitic acid, valinomycin, pH 7.2, 25 C
T2 construct: gene SLC25A27; co-reconstituted 1:1 in liposomes from purified N-terminally His6-tagged monomers (bovine ANT1, human UCP4); heterotetramer
T2 sequence (O95847 1-323): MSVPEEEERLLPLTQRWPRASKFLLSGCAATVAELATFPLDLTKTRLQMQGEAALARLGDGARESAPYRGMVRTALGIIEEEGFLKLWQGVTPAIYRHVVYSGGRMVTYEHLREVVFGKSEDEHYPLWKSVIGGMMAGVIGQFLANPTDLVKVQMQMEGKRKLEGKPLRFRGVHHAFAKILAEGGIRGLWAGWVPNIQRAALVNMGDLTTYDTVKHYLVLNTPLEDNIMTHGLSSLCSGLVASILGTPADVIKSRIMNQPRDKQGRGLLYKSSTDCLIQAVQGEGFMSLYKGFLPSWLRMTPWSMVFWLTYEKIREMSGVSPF
T2 sequence (P02722 2-298): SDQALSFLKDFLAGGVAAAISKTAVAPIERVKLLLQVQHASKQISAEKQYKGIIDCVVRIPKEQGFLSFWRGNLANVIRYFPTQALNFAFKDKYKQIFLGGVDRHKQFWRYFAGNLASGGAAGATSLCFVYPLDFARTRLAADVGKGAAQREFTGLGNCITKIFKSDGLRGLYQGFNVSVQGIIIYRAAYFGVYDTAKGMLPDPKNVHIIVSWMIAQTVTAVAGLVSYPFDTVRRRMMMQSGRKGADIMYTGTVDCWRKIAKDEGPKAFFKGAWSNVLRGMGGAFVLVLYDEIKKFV

[3] = target: T3, UCP2:ANT1 heterotetramer (1:1) (Homo sapiens; Bos taurus, UniProt P02722+P55851); assay type: biochemical; details: 500 uM ATP; EYPC without added cardiolipin, 100 uM palmitic acid, valinomycin, pH 7.2, 25 C
T3 construct: co-reconstituted 1:1 in liposomes from purified N-terminally His6-tagged monomers (bovine ANT1, human UCP2); heterotetramer
T3 sequence (P55851 1-309): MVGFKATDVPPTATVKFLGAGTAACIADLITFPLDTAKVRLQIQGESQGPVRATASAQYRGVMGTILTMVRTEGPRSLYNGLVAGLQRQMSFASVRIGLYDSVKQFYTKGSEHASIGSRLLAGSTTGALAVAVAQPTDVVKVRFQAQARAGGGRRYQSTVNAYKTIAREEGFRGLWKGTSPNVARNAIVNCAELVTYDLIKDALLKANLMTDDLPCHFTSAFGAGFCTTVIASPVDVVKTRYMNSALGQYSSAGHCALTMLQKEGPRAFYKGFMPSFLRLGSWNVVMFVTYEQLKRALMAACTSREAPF
T3 sequence (P02722 2-298): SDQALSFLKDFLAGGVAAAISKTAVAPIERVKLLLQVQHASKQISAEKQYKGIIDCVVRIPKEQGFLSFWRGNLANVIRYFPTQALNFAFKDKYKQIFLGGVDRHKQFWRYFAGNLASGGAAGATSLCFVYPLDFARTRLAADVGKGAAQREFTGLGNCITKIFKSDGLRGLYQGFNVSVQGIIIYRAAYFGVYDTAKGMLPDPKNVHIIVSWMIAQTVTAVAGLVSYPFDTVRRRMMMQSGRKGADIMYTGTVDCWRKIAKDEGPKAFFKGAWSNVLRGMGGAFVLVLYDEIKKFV

[4] = target: T4, UCP2 (Homo sapiens, UniProt P55851); assay: SPQ fluorescence proton efflux in proteoliposomes; assay type: biochemical; details: 500 uM GTP; EYPC with or without 2.5% cardiolipin, 100 uM palmitic or oleic acid, valinomycin, pH 7.2, 25 C
T4 construct: full length, N-terminal His6 tag kept, pelB leader removed; E. coli membranes; homotetramer in liposomes
T4 sequence (P55851 1-309): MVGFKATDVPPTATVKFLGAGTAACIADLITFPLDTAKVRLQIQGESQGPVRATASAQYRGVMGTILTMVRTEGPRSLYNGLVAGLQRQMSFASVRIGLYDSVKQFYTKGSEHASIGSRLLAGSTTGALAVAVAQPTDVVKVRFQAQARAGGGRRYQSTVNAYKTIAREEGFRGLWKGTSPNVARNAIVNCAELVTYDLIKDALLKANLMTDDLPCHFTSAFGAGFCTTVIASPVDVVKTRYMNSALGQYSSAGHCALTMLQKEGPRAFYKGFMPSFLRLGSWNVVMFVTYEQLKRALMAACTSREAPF

[5] = target: T5, UCP4 (Homo sapiens, UniProt O95847); assay: SPQ fluorescence proton efflux in proteoliposomes; assay type: biochemical; details: 500 uM GTP; EYPC with or without 2.5% cardiolipin, 100 uM palmitic or oleic acid, valinomycin, pH 7.2, 25 C
T5 construct: gene SLC25A27; full length, N-terminal His6 tag kept, pelB leader removed; E. coli membranes; homotetramer in liposomes
T5 sequence (O95847 1-323): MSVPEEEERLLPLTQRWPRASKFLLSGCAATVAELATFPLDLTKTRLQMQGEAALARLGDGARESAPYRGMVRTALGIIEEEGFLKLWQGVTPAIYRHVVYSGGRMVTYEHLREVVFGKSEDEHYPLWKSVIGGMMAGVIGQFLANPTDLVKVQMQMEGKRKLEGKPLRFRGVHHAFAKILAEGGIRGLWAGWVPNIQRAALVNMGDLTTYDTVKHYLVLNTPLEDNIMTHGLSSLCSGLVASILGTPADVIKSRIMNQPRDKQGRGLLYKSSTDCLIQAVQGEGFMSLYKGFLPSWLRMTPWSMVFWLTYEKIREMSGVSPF

[6] = target: T4, UCP2; assay: SPQ fluorescence proton efflux in proteoliposomes; assay type: biochemical; details: EYPC liposomes, valinomycin, pH 7.2, 25 C
[7] = target: T1, ANT1; assay: SPQ fluorescence proton efflux in proteoliposomes; assay type: biochemical; design: gene SLC25A4; full length, N-terminal His6 tag kept, pelB leader removed; E. coli membranes; mainly monomer in liposomes; details: EYPC liposomes, valinomycin, pH 7.2, 25 C
[8] = target: T6, PiT (PiT-B) (Homo sapiens, UniProt Q00325); assay: SPQ fluorescence proton efflux in proteoliposomes; assay type: biochemical; details: EYPC liposomes, valinomycin, pH 7.2, 25 C
T6 construct: gene SLC25A3; isoform B, N-terminal His6 tag kept, pelB leader removed; E. coli membranes; mainly monomer in liposomes
T6 sequence (Q00325 50-361 isoform Q00325-2): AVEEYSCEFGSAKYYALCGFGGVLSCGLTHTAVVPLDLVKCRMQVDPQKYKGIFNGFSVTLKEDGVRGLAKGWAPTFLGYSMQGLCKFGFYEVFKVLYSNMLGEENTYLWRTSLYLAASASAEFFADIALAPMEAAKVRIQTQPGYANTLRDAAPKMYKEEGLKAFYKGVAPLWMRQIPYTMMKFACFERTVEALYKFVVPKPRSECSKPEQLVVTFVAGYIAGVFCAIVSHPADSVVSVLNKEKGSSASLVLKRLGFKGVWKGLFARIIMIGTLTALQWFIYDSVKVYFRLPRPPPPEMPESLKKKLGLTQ

[9] = target: T5, UCP4; assay: SPQ fluorescence proton efflux in proteoliposomes; assay type: biochemical; details: EYPC liposomes, valinomycin, pH 7.2, 25 C
[10] = target: the molecule itself; assay: semi-native SDS-PAGE; single purified protein reconstituted in liposomes of egg yolk extract (EYPC, ~60% PC) without added cardiolipin; 0.1% SDS in gel and running buffer, samples not heated; Coomassie staining
[11] = target: B3; assay: semi-native SDS-PAGE; two purified monomeric proteins co-reconstituted 1:1 in liposomes (UCP4:ANT1 also 3:1 and 1:3), regardless of lipid composition (EYPC with or without 2.5% CL); Coomassie staining; details: both partners purified
[12] = target: B1; assay: as above; details: both partners purified
[13] = 100 uM palmitic acid as activator

Nc1ncnc2c1ncn2[C@@H]1O[C@H](COP(=O)(O)OP(=O)(O)OP(=O)(O)O)[C@@H](O)[C@H]1O [ATP]
% inhibition at 500 uM [1]: proton transport was inhibited by ATP more effectively than by GTP
% inhibition at 500 uM [2]: ATP significantly inhibited combinations of UCP2 or UCP4 with ANT1
% inhibition at 500 uM [3]: ATP significantly inhibited combinations of UCP2 or UCP4 with ANT1

Nc1nc2c(ncn2[C@@H]2O[C@H](COP(=O)(O)OP(=O)(O)OP(=O)(O)O)[C@@H](O)[C@H]2O)c(=O)[nH]1 [GTP]
% inhibition at 500 uM [4]: GTP is overall a more effective inhibitor than ATP of UCP2 and UCP4
% inhibition at 500 uM [5]: GTP is overall a more effective inhibitor than ATP of UCP2 and UCP4

CCCCCCCC/C=C\CCCCCCCC(=O)O [OA, oleic acid]
fatty acid-activated proton efflux (qualitative) ([6]; 100 uM oleic acid as activator): For each individual protein, OA was a significantly more potent activator than PA
fatty-acid-activated proton transport (qualitative finding) ([7]; 100 uM oleic acid as activator): For each individual protein, OA was a significantly more potent activator than PA
SPQ fluorescence proton efflux in proteoliposomes ([8]; 100 uM oleic acid as activator): For each individual protein, OA was a significantly more potent activator than PA
SPQ fluorescence proton efflux in proteoliposomes ([9]; 100 uM oleic acid as activator): For each individual protein, OA was a significantly more potent activator than PA

CCCCCCCCCCCCCCCC(=O)O [PA, palmitic acid]
fatty acid-activated proton efflux (qualitative) [6, 13]: both OA and PA interacted with all proteins and their combinations
fatty-acid-activated proton transport (qualitative finding) [7, 13]: both OA and PA interacted with all proteins and their combinations
SPQ fluorescence proton efflux in proteoliposomes [8, 13]: both OA and PA interacted with all proteins and their combinations
SPQ fluorescence proton efflux in proteoliposomes [9, 13]: both OA and PA interacted with all proteins and their combinations

B1
stoichiometry N [10]: 4
binding result [11]: binds

B2: adenine nucleotide translocase 1 (ANT1), recombinant His6-tagged (natural protein, bovine)
chain: SDQALSFLKDFLAGGVAAAISKTAVAPIERVKLLLQVQHASKQISAEKQYKGIIDCVVRIPKEQGFLSFWRGNLANVIRYFPTQALNFAFKDKYKQIFLGGVDRHKQFWRYFAGNLASGGAAGATSLCFVYPLDFARTRLAADVGKGAAQREFTGLGNCITKIFKSDGLRGLYQGFNVSVQGIIIYRAAYFGVYDTAKGMLPDPKNVHIIVSWMIAQTVTAVAGLVSYPFDTVRRRMMMQSGRKGADIMYTGTVDCWRKIAKDEGPKAFFKGAWSNVLRGMGGAFVLVLYDEIKKFV
notes: bovine ANT1, UniProt P02722; Cloned in pET26b(+); also called ADP/ATP carrier; AAC; source: E. coli BL21 (DE3) or BL21 CodonPlus (DE3)-RIPL, extracted from bacterial membranes, purified (Ni-NTA IMAC, 1% OG); not shown: pelB leader, N-terminal, cleaved; His6, N-terminal, kept
stoichiometry N [10]: 2
binding result [12]: binds
binding result [11]: binds

B3
stoichiometry N [10]: 4

From paper PMC12682859, “Interconnected roles of mitochondrial carrier proteins ANT, PiT, and UCPs in proton transport” (Frontiers in Molecular Biosciences, 2025)
